From patent US8053445B2, “Utilities of olefin derivatives” (Shionogi & Co., Ltd., priority 2001, dated 2011)

System: promoter region of the gene encoding human apoAI
Test: Activity to enhance the expression of human apoAI (apoAI promoter-luciferase reporter in HepG2 cells)
Assay type: cell-based
Settings: HepG2 cells stably expressing apoAI promoter-luciferase reporter; compounds at 0 to 10 μg/mL, 24 hours incubation
Protocol: The promoter region of the gene encoding human apoAI was isolated, and ligated upstream the structure gene of firefly luciferase to construct a reporter plasmid. The reporter plasmid and a marker plasmid conferring the neomycin resistance were co-infected to cell lines derived from human hepatoma, HepG2 cells, and the cell lines were incubated in a selection medium comprising DMEM medium containing 10% fetal calf serum supplemented with G418 (Final concentration: 0.7 mg/mL, Gibco) to give established strains that stably expressed the reporter molecule. The strains were seeded to a 96-well culture plates at a density of 50,000 cells per well, and incubated for 48 hours at 37° C. under an atmosphere of 5% carbon dioxide. […] The concentration of the compounds, which intensified the luciferase activity twice compared to that of control (DMSO without any compound of the invention added) was set as the minimal effective dose (MED).

Row | Compound | MED (minimum effective dose: concentration of the compound which intensified the luciferase activity twice compared to control) [µg/mL]
1 | COc1cc(C=CC=Cc2ccccn2)ccc1OC(C)=O [Ic-18, phenyl 2-methoxy-4-(4-pyridin-2-yl-buta-1,3-dienyl)acetate] | 1.9
2 | 2-phenyl-5-pyridin-2-yl-penta-2,4-diene nitrile [Ic-76] | 0.23
3 | 2-(2-thiophen-3-yl-vinyl)benzothiazole [Ib-91] | 0.7
4 | C(=Cc1ccccc1)Sc1ccccn1 [Id-4, 2-styrylsulfanil-pyridine] | 1.0
5 | FC(F)(F)c1ccc(C=Cc2ccccn2)cc1 [Ib-9, 2-[2-(4-trifluorophenyl)vinyl]pyridine] | 0.71

System: not given
Test: not given
Settings: not given

Row | Compound | melting point [°C]
6 | c1ccc(-c2ccc(-c3ccc4ccccc4n3)cc2)cc1 [Ia-12, 2-(biphenyl-4-yl)quinoline] | 180 to 182
7 | COc1ccc(-c2cnc3ccccc3n2)cc1 [Ia-3, 2-(4-methoxyphenyl)quinoxaline] | 101 to 102

Next, values leading:

Row | melting point [°C] | Compound
8 | 86 to 87 | c1ccc2nc(-c3ccsc3)cnc2c1 [Ia-6, 2-(thiophen-3-yl)quinoxaline]
9 | 132 to 133 | c1ccc2nc(-c3ccsc3)ccc2c1 [Ia-15, 2-(thiophen-3-yl)quinoline]
10 | 113 to 115 | Clc1ccc(-c2ccc3ccccc3n2)cc1 [Ia-16, 2-(4-chlorophenyl)quinoline]
11 | 126 to 127 | c1ccc(-c2ccc(-c3cnc4ccccc4n3)cc2)cc1 [Ia-10, 2-(biphenyl-4-yl)quinoxaline]
